Test results as given in ChEMBL document CHEMBL4130573, “Antitubercular and Cytotoxic Chlorinated seco-Cyclohexenes from Uvaria alba” (J Nat Prod, 2017).
≈ marks a conversion by molar mass, not a printed value. Calls of active or inactive are those of the source. The rule behind the calls is not given here.

Columns and labels:
K562 = assay: Antiproliferative activity against human K562 cells by Cell-titer blue assay; type: functional, cell-based
[1] = tested on: Mycobacterium tuberculosis; assay: Antitubercular activity against Mycobacterium tuberculosis H37Rv by MABA method; type: functional
HeLa [2] = assay: Cytotoxic activity against human HeLa cells by Cell-titer blue assay; type: functional, cell-based
HUVEC = assay: Antiproliferative activity against HUVEC cells by Cell-titer blue assay; type: functional, cell-based; conditions: Homo sapiens
HeLa [3] = assay: Cytostatic activity against human HeLa cells at 1 to 50 uM by Cell-titer blue assay; type: functional, cell-based

| Structure (SMILES) | IC50 (K562) | MIC [1] | IC50 (HeLa [2]) | IC50 (HUVEC) | Activity (HeLa [3]) |
| --- | --- | --- | --- | --- | --- |
| CC(=O)O[C@@H]1C(=O)C=COC=C1COC(=O)c1ccccc1 | 7.9 µM | 25 µM (≈ 7.56 µg/mL) | 25.5 µM | 9.9 µM |  |
| CC(=O)OC/C(=C\[C@@H](Cl)[C@H](O)COC(=O)c1ccccc1)COC(=O)c1ccccc1 |  | 26 µM (≈ 11.6 µg/mL) |  |  | Active |
| O=C(OC/C=C\[C@H](Cl)[C@@](O)(CO)COC(=O)c1ccccc1)c1ccccc1 (relative stereo) | > 45 µM | 38 µM (≈ 15.4 µg/mL) | > 45 µM | > 45 µM |  |
